Laboratory results published in publication PMC13422867, “An orally available PfPKG inhibitor blocks Plasmodium’s infection of the liver” (PLOS Pathogens, 2026).

Key:
CIT [1] = biological target: T1, CIT (Homo sapiens, UniProt O14578); experiment: KdElect binding affinity assay; conditions: read-out: CIT Experimental Kd
T1 construct: purchased Eurofins (DiscoverX)
Procedure: (§1) Off-target kinase inhibition was assessed using the DiscoverX scanMAX (Eurofins) panel at 1 µM compound concentration. Binding affinities of CIT, ROCK1 and ROCK2 were evaluated using the KdElect assay (Eurofins).

ROCK2 [2] = biological target: T2, ROCK2 (Homo sapiens, UniProt O75116); experiment: KdElect binding affinity assay; conditions: read-out: ROCK2 Experimental Kd
T2 construct: purchased Eurofins (DiscoverX)
Procedure: as §1

[3] = in vitro; cited from earlier work
[4] = system: P. berghei sporozoites infecting HepG2 cells; conditions: cited from earlier work
P. cynomolgi hypnozoite = experiment: Hypnozoite formation in primary simian hepatocytes, high-content imaging; assay type: cell-based, Plasmodium cynomolgi; conditions: Plasmodium cynomolgi, Hepatocyte
Procedure: Liver stage antimalarial activity was evaluated using sporozoites from P. falciparum (NF54 strain) and P. cynomolgi bastianellii (B strain). P. falciparum-infected Anopheles stephensi mosquitoes were reared at WRAIR, while P. cynomolgi-infected Anopheles dirus mosquitoes were obtained from the Armed Forces Research Institute of Medical Sciences (AFRIMS), Thailand. Sporozoites were isolated by dissecting salivary glands under sterile conditions, followed by gentle mechanical disruption. Freshly isolated sporozoites were immediately used for hepatocyte infection.
(§2) Primary cryopreserved hepatocytes were selected based on host-parasite compatibility: primary simian hepatocytes (lot OQB) for P. cynomolgi and human hepatocytes (lot BGW) for P. falciparum (BioIVT Inc., Baltimore, MD, USA). Cells were thawed according to the manufacturer’s protocol and seeded into 384-well collagen-coated assay plates (Greiner Bio-One, Monroe, NC, USA) using InVitroGro CP plating medium (BioIVT). Seeding densities were optimized for uniform monolayer formation, and hepatocytes were allowed to adhere for 24–48 hours before infection. Sporozoites were added at a 1:1.1 hepatocyte-to-sporozoite ratio within 48 hours post-seeding. Automated robotic systems were used for media changes and compound additions to ensure assay consistency and minimize variability associated with manual pipetting.
Test compounds (PfPKG inhibitors) and assay drug controls (KDU-691 and tafenoquine) were solubilized in DMSO or PBS and serially diluted into 8- or 12-point, 2- or 3-fold series, achieving final assay concentrations ranging from 20 µM to 0.019 µM. Compounds were introduced using a calibrated pin tool controlled by robotic arms (V&P Scientific), ensuring a 1:1000 dilution into assay wells. Media were replenished daily with fresh drug-containing HCM. […]
Cells were fixed using 4% paraformaldehyde for 20 minutes at room temperature, followed by three PBS washes, and stored at 4°C until further processing. Parasite detection was performed using species-specific primary antibodies, with P. cynomolgi parasites labeled using a mouse monoclonal anti-Plasmodium GAPDH antibody (1.6 μg/mL, European Malaria Reagent Repository) and P. falciparum parasites detected using a rabbit polyclonal anti-PfHSP70 antibody (1:70 dilution, LS Bio, USA). […]
High-content imaging was performed using the Operetta CLS system (Revvity) and image analysis was performed with Harmony software version 4.9 (Revvity, Waltham, MA, USA). Images were acquired at 10x or 20x magnification using DAPI and TRITC fluorescence channels. Following the established protocol, parasites were classified as hypnozoites or schizonts based on fluorescence intensity (mean and maximum), morphological features (cell roundness and size), and segmentation criteria. […]

CIT [5] = biological target: T1, CIT; experiment: DiscoverX scanMAX competition binding at 1 µM; conditions: 1 μM compound
Procedure: (§3) A major issue affecting the further development of RUPB-61 is its human-kinome selectivity. To identify its significant off-target liabilities, we quantified its binding affinity for 400 unique human kinases (S4 Fig). The screen consists of binding competitions between the test compound and control ligands for each of the target human kinases.
as §1

ROCK1 = biological target: T3, ROCK1 (Homo sapiens, UniProt Q13464); experiment: DiscoverX scanMAX competition binding at 1 µM; conditions: 1 μM compound
T3 construct: purchased Eurofins (DiscoverX)
Procedure: as §3, §1

ROCK2 [6] = biological target: T2, ROCK2; experiment: DiscoverX scanMAX competition binding at 1 µM; conditions: 1 μM compound
Procedure: as §3, §1

[7] = system: P. falciparum CamWT and CamC580Y; conditions: ring-stage assays; cited from earlier work
[8] = system: P. berghei sporozoites (PbLuc-GFP); experiment: In vivo chemoprotective efficacy against sporozoite liver infection; set-up: species or system Plasmodium berghei in mice
[9] = system: primary human hepatocytes; experiment: Cellular cytotoxicity, hepatocyte nuclear counts; assay type: cell-based; conditions: primary human hepatocytes
From the text: as §2
(§4) Test compounds (PfPKG inhibitors) and assay drug controls (KDU-691 and tafenoquine) were solubilized in DMSO or PBS and serially diluted into 8- or 12-point, 2- or 3-fold series, achieving final assay concentrations ranging from 20 µM to 0.019 µM. […]
(§5) High-content imaging was performed using the Operetta CLS system (Revvity) and image analysis was performed with Harmony software version 4.9 (Revvity, Waltham, MA, USA). Images were acquired at 10x or 20x magnification using DAPI and TRITC fluorescence channels. Following the established protocol, parasites were classified as hypnozoites or schizonts based on fluorescence intensity (mean and maximum), morphological features (cell roundness and size), and segmentation criteria. […] Hepatocyte viability was determined by quantifying nuclear counts per well using Hoechst stain intensity thresholds. […] An in-house built Python-based image analysis script identified parasite objects using predefined fluorescence intensity thresholds. […] Parasite size was quantified by calculating the average object area (µm²) of validated parasite structures per well. […] Dose-response inhibition and IC50 were calculated relative to in-plate negative controls (DMSO-treated wells). […]

[10] = Cellular cytotoxicity, hepatocyte nuclear counts; assay type: cell-based, human; conditions: human, primary cryopreserved human hepatocytes (lot BGW); cellular cytotoxicity
From the text: as §2, §4, §5

[11] = Intravenous, 10 mg/kg x1 (-0.5 hpi)

T1 sequence (O14578 whole entry): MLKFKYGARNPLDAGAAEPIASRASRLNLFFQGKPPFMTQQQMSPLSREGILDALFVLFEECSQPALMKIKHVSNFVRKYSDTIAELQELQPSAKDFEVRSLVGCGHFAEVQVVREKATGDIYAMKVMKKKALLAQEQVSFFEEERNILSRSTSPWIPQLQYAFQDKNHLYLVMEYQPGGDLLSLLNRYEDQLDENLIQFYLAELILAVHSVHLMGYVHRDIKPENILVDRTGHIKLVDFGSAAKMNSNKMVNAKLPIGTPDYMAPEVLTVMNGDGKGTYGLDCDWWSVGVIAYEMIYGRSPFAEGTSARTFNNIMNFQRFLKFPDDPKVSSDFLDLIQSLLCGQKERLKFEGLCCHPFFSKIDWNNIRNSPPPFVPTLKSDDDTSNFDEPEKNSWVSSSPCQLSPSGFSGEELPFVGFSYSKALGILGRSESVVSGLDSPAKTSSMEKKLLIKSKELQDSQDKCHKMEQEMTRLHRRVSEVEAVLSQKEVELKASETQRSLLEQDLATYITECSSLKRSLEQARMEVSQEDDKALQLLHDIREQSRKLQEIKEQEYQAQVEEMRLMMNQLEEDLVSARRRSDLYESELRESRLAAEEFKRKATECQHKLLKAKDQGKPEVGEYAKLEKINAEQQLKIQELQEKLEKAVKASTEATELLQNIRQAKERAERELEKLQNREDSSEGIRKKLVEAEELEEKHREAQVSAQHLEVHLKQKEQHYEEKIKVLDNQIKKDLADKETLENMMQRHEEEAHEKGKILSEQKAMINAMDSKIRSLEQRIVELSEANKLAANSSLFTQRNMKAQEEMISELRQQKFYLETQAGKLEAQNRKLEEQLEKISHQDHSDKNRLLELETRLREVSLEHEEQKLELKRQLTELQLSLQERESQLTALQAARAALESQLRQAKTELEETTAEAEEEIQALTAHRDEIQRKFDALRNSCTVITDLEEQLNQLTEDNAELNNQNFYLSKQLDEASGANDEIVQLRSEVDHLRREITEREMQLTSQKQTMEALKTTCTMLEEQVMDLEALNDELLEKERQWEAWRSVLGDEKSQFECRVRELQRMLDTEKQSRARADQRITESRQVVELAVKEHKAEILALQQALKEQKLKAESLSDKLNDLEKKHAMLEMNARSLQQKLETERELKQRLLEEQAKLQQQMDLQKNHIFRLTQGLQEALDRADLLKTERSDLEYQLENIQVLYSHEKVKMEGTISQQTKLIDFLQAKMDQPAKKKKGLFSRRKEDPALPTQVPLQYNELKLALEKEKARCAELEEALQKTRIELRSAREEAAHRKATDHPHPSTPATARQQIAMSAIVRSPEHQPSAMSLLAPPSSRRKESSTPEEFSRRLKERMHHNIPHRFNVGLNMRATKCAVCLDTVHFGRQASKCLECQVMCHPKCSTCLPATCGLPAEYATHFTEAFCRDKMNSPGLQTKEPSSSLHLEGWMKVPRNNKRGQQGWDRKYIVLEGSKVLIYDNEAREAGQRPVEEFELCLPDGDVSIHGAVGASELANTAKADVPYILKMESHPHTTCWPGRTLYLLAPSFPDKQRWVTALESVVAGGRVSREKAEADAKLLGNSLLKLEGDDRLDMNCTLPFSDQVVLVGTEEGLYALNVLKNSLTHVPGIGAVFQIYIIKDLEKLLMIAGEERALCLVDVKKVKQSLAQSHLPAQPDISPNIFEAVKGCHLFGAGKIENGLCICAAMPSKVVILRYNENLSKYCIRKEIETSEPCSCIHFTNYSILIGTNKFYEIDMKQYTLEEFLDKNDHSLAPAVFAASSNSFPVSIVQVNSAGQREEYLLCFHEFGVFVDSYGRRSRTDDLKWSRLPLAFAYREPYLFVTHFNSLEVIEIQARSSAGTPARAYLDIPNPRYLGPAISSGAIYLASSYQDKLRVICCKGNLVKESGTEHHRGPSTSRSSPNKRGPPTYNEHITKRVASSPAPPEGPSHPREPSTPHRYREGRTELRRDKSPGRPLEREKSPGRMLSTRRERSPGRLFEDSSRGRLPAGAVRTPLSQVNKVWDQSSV
T2 sequence (O75116 whole entry): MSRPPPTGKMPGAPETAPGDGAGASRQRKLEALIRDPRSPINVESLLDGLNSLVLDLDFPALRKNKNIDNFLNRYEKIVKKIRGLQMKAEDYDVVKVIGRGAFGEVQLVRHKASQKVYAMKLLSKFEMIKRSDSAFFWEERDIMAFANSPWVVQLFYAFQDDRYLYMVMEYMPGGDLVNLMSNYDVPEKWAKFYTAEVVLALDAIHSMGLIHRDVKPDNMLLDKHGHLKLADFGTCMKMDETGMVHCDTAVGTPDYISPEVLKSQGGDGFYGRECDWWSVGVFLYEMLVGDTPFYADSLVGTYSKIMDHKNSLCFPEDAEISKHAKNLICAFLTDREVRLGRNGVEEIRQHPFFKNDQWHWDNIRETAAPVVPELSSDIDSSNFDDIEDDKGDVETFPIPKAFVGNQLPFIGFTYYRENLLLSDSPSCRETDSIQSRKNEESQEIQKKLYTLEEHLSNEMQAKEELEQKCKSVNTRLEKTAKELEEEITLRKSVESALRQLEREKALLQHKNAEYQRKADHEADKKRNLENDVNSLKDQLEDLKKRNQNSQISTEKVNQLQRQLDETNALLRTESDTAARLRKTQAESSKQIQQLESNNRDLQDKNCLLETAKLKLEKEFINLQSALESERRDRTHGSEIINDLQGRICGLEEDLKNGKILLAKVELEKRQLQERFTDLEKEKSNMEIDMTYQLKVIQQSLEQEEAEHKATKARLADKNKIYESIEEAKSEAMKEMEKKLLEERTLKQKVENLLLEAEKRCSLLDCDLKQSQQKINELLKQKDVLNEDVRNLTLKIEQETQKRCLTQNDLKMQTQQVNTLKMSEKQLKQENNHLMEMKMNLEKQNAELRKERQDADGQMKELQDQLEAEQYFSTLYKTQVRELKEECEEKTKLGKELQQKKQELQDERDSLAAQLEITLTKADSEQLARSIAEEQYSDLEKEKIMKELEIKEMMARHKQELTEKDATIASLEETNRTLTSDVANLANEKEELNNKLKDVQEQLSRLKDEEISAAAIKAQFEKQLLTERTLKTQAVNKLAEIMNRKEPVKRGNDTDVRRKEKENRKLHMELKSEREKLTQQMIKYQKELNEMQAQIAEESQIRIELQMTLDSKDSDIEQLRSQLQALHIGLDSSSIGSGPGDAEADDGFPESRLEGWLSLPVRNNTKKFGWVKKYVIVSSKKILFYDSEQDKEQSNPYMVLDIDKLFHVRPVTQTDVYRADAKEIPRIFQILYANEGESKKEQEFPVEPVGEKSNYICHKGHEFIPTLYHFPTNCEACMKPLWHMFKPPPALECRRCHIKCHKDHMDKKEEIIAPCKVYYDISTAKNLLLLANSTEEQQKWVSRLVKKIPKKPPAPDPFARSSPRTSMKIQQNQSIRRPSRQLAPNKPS
T3 sequence (Q13464 whole entry): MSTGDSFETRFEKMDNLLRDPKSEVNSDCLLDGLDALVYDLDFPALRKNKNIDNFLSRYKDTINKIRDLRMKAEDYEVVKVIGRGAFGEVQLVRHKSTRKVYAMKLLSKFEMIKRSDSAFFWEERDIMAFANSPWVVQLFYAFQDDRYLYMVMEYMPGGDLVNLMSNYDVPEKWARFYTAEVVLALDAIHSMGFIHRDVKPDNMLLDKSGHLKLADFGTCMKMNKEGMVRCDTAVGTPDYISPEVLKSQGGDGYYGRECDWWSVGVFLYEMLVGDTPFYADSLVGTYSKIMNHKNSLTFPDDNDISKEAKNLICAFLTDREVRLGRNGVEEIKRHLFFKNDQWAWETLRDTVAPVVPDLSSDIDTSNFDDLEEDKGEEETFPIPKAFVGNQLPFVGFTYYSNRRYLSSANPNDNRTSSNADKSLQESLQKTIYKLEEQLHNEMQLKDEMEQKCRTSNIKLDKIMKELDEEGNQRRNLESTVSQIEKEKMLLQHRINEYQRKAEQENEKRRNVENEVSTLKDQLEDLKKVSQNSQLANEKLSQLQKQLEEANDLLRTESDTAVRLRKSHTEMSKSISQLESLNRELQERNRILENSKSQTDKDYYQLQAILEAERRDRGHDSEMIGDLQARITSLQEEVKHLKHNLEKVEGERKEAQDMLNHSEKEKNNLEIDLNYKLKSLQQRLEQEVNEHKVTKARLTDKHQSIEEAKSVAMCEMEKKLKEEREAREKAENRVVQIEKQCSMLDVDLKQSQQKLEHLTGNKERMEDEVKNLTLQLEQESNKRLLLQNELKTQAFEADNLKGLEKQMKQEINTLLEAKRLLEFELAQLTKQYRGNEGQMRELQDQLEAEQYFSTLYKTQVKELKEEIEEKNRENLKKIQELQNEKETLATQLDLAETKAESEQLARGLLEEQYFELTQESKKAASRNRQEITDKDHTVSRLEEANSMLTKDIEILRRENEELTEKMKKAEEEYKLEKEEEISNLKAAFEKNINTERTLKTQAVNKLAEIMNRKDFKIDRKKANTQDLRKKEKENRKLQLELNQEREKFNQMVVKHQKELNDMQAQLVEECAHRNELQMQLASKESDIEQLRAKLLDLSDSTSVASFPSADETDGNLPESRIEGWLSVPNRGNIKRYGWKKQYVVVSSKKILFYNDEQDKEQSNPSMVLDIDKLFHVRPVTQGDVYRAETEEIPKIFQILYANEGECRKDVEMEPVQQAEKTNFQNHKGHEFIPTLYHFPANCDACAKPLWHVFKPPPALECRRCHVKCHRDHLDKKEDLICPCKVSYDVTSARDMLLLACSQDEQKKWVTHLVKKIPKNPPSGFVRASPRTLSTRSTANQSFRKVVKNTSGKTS

Structure (SMILES): C[C@@H]1CN(C)CC[C@@H]1c1cc(-c2ccncc2)c(-c2ccc(F)cc2)[nH]1.Cl.Cl [RUPB-61, 4-{5-[(3S,4S)-1,3-Dimethylpiperidin-4-yl]-2-(4-fluorophenyl)-1H-pyrrol-3-yl}pyridine Dihydrochloride]
- Kd (CIT [1]): 5.2 nM
- Kd (ROCK2 [2]): 13 nM
- first-pass metabolism [3]: minimal
- activity against P. berghei sporozoites infecting HepG2 cells [4]: active
- IC50 (P. cynomolgi hypnozoite): 190 nM
- displacement of control ligand for CIT (CIT [5]): > 99%
- displacement of control ligand for ROCK1 (ROCK1): > 99%
- displacement of control ligand for ROCK2 (ROCK2 [6]): > 99%
- IC50 against DHA-sensitive CamWT compared with DHA-resistant CamC580Y [7]: similar
- No. of mice patent by D21/ No. of mice inoculated [8, 11]: 0/5
- Prepatent period mean ± sd [8, 11]: negative
- No. of mice patent by D21/ No. of mice inoculated ([8]; Oral, 10 mg/kg x1 (-3 hpi)): 0/5
- Prepatent period mean ± sd ([8]; Oral, 10 mg/kg x1 (-3 hpi)): negative
- mice developing detectable blood stage infection in the 3-week monitoring period ([8]; single dose 10 mg/kg, PO (-3 hpi) and IV (-0.5 hpi), 10 mice): none
- cytotoxicity against PHH [9]: no cytotoxicity
- CC50 at 3 days [10]: > 20000 nM
